The text below walks through data of article PMC9116130 (Biochemical pharmacology, 2020).

Where a SMILES comes first, the peptide text is derived from it. Bridges are numbered along the chain shown (N, C = ends).

One assay addresses rNaV1.4 (Rattus norvegicus, UniProt P15390). Nature of the assay: Two-electrode voltage-clamp on Xenopus laevis oocytes expressing NaV1.4. Conditions: for inhibition at 100 µM: read-out: Maximum % inhibition NaV1.4, peptide at 100 μM; for Maximum % inhibition NaV1.4: peptide at 100 μM, 100 µM. A general note: In two-electrode clamp one electrode senses voltage and the other passes current.

The target in a further assay is rNaV1.8 (Rattus norvegicus, UniProt Q62968). Nature of the assay: Two-electrode voltage-clamp on Xenopus laevis oocytes expressing NaV1.8. Conditions: for inhibition at 100 µM: read-out: Maximum % inhibition NaV1.8.
The next assay addresses hNaV1.5 (Homo sapiens, UniProt Q14524). Nature of the assay: Two-electrode voltage-clamp on Xenopus laevis oocytes expressing NaV1.5. Conditions: for inhibition at 100 µM: read-out: Maximum % inhibition NaV1.5.
The target of the next assay is mNaV1.6 (Mus musculus, UniProt Q9WTU3). Nature of the assay: Two-electrode voltage-clamp on Xenopus laevis oocytes expressing NaV1.6. Conditions: for inhibition at 100 µM: read-out: Maximum % inhibition NaV1.6, peptide at 100 μM.
In the next assay the target is rNaV1.2 (Rattus norvegicus, UniProt P04775). In words: Two-electrode voltage-clamp on Xenopus laevis oocytes expressing NaV1.2. The following applies: for inhibition at 100 µM: read-out: Maximum % inhibition NaV1.2, peptide at 100 μM; for Maximum % inhibition NaV1.2: peptide at 100 μM, 100 µM.

Sequence of hNaV1.5 (Q14524 whole entry): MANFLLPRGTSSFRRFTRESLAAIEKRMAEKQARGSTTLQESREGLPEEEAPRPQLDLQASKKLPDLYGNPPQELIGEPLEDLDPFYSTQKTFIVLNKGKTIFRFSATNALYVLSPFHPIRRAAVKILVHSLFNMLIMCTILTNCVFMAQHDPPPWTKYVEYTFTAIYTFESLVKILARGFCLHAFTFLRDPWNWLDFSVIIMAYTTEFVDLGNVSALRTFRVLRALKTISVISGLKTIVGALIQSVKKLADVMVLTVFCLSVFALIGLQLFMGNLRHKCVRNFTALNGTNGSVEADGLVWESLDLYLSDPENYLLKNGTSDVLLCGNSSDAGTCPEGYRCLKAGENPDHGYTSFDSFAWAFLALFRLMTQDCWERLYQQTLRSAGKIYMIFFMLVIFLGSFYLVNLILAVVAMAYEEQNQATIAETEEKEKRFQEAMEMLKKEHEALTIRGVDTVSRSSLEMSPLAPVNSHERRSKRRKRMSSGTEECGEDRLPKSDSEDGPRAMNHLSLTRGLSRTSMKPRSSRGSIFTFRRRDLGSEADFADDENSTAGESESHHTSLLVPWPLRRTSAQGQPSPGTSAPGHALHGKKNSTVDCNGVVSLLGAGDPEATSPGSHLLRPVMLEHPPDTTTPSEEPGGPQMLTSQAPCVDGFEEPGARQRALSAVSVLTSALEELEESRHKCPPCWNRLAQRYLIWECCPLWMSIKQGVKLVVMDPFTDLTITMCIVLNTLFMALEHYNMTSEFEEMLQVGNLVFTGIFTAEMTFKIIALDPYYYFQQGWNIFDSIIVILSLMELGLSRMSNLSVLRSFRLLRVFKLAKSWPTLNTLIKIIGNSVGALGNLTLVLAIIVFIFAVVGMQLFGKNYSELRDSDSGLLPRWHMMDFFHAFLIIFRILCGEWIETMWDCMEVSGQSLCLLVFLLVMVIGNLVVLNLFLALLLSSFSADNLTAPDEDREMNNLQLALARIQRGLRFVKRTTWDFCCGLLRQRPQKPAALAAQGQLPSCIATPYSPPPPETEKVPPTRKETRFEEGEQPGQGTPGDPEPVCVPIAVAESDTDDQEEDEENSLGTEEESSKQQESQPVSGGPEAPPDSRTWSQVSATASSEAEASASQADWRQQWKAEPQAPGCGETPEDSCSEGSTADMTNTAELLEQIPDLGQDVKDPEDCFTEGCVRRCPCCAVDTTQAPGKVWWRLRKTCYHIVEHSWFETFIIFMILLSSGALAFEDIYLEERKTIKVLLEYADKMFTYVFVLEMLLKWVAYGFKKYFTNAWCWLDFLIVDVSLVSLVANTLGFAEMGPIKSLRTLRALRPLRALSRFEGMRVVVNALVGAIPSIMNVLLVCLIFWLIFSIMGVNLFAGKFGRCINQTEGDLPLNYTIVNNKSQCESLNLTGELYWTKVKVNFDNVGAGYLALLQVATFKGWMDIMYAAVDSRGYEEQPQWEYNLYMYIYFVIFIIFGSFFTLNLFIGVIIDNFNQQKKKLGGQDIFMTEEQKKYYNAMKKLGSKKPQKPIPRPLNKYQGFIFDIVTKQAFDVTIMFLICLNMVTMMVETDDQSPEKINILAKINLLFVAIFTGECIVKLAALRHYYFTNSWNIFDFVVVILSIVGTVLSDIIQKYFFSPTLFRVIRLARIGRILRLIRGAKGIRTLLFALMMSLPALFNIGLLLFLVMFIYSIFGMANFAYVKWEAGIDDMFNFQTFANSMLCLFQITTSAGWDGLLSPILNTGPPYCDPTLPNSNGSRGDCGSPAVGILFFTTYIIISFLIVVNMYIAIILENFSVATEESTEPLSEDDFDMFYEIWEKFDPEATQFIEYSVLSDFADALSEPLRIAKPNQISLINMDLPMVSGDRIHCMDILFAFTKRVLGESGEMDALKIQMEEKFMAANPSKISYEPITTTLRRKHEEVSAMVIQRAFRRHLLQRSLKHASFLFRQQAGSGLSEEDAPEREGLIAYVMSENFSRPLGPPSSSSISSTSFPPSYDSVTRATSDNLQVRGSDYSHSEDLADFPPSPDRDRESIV
Sequence of rNaV1.4 (P15390 whole entry): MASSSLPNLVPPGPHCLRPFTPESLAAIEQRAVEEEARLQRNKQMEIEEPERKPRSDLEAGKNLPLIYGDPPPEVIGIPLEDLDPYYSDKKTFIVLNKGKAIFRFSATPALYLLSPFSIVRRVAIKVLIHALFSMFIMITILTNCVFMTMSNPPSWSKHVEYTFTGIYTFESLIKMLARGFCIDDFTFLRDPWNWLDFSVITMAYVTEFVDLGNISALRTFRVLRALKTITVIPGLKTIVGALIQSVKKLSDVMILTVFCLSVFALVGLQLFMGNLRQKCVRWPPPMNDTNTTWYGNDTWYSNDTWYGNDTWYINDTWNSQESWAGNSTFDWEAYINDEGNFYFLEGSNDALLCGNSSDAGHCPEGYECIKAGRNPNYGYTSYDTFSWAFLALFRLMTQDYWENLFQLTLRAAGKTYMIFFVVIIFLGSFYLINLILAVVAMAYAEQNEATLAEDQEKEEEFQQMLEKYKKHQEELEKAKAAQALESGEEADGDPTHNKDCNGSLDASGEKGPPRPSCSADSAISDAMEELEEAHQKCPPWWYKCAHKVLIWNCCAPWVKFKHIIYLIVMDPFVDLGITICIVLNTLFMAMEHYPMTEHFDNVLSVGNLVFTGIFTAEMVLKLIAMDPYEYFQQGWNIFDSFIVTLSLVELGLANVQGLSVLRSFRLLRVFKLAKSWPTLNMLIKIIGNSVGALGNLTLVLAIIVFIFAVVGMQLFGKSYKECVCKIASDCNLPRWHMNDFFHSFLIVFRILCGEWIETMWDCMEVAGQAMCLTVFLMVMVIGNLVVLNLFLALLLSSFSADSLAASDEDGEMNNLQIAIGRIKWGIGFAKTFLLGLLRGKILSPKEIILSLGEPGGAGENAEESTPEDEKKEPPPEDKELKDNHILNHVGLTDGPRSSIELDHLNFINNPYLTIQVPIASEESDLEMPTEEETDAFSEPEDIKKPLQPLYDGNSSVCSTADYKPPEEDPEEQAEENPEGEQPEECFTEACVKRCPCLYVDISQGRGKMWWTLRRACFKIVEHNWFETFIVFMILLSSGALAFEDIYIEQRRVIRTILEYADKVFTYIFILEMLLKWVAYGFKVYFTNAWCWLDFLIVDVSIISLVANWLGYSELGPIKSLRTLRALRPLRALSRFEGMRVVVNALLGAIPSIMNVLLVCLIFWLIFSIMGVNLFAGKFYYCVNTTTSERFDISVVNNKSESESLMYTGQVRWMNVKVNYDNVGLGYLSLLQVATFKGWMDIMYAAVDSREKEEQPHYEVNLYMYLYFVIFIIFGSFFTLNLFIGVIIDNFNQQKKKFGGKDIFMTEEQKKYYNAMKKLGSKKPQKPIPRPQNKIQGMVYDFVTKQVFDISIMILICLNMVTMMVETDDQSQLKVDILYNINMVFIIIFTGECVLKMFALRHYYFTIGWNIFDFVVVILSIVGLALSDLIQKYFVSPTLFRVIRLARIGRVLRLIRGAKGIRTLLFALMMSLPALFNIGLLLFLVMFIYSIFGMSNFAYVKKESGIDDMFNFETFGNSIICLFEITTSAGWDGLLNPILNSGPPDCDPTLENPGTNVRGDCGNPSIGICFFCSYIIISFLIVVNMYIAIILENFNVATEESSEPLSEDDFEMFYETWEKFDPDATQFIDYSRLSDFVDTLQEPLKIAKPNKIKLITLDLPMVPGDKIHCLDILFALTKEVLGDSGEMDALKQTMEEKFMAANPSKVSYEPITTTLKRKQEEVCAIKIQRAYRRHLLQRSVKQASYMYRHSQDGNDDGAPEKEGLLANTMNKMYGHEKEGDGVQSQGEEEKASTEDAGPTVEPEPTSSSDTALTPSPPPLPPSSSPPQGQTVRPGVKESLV
Sequence of rNaV1.4 (Q00954 19-218, further chain): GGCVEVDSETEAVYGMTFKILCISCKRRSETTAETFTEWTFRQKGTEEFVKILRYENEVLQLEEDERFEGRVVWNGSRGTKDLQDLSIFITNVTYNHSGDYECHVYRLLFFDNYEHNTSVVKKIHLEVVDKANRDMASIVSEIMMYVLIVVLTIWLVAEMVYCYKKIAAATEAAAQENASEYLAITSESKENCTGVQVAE

As to `C[C@@H]1NC(=O)[C@H](Cc2c[nH]c3ccccc23)NC(=O)[C@H](CCCNC(=N)N)NC(=O)[C@H](CCCNC(=N)N)NC(=O)[C@@H](N)CSSC[C@@H](C(N)=O)NC(=O)[C@H](CCCNC(=N)N)NC(=O)[C@H](CCC(=O)O)NC(=O)[C@H](Cc2c[nH]c3ccccc23)NC(=O)[C@H](CCCNC(=N)N)NC1=O` [PnCS1[N8E], CRRWARWERC ^*] (H-CRRWARWERC-NH2; disulfide 1-10), the IC50 on rNaV1.4, against rNaV1.8, against hNaV1.5, at mNaV1.6 and on rNaV1.2 was over 100 µM throughout. The inhibition (commonly the relative decrease from the control value, in per cent) at 100 µM on rNaV1.4 came out at 53%; on rNaV1.8 it was 0%; at hNaV1.5, 44%; at mNaV1.6, 27%; at rNaV1.2 it was 47%.

Regarding `N=C(N)NCCC[C@@H]1NC(=O)[C@H](CC(N)=O)NC(=O)[C@H](Cc2c[nH]c3ccccc23)NC(=O)[C@H](CCCNC(=N)N)NC(=O)[C@H](CCC(=O)O)NC(=O)[C@H](Cc2c[nH]c3ccccc23)NC(=O)[C@H](CCCNC(=N)N)NC(=O)[C@H](CCCNC(=N)N)NC(=O)[C@@H](N)CSSC[C@@H](C(N)=O)NC1=O` [PnCS1[A5E], CRRWERWNRC ^*] (H-CRRWERWNRC-NH2; disulfide 1-10), the concentration for half-maximal inhibition (IC50) (usually the concentration that inhibits the measured activity by half) was over 100 µM on rNaV1.4; over 100 µM against rNaV1.8; 8.8 ± 3.7 µM against hNaV1.5; 1.8 ± 0.5 µM against mNaV1.6; 1.4 ± 0.2 µM against rNaV1.2. In addition, the inhibition at 100 µM was 35% at rNaV1.4; 0% at rNaV1.8; 73% on hNaV1.5; 82% at mNaV1.6; 81% on rNaV1.2.

Consider `C[C@@H]1NC(=O)[C@H](Cc2c[nH]c3ccccc23)NC(=O)[C@H](CCCNC(=N)N)NC(=O)[C@H](CCCNC(=N)N)NC(=O)[C@@H](N)CSSC[C@@H](C(N)=O)NC(=O)[C@H](CCCNC(=N)N)NC(=O)[C@H](CC(N)=O)NC(=O)[C@H](CCCCN)NC(=O)[C@H](CCCNC(=N)N)NC1=O` [PnCS1[W7K], CRRWARKNRC ^*] (H-CRRWARKNRC-NH2; disulfide 1-10), for which the 50% inhibitory concentration (IC50) on rNaV1.4 was 1.7 ± 0.5 µM; against rNaV1.8, over 100 µM; at hNaV1.5 it was 3 ± 0.7 µM; against mNaV1.6 it was 8.2 ± 0.6 µM; on rNaV1.2, 2.8 ± 0.5 µM. In addition, the inhibition at 100 µM is 87% at rNaV1.4; 0% at rNaV1.8; 90% at hNaV1.5; 82% at mNaV1.6; 71% on rNaV1.2.

As to `C[C@@H]1NC(=O)[C@H](Cc2c[nH]c3ccccc23)NC(=O)[C@H](CCCNC(=N)N)NC(=O)[C@H](C)NC(=O)[C@@H](N)CSSC[C@@H](C(N)=O)NC(=O)[C@H](CCCNC(=N)N)NC(=O)[C@H](CC(N)=O)NC(=O)[C@H](Cc2c[nH]c3ccccc23)NC(=O)[C@H](CCCNC(=N)N)NC1=O` [PnCS1[R2A], CARWARWNRC ^*] (H-CARWARWNRC-NH2; disulfide 1-10), the half-maximal inhibitory concentration (IC50) was 1.4 ± 0.4 µM against rNaV1.4; over 100 µM on rNaV1.8; 1.7 ± 0.7 µM against hNaV1.5; 1.6 ± 0.5 µM at mNaV1.6; 2.9 ± 0.5 µM at rNaV1.2. The “Maximum % inhibition NaV1.4” value on rNaV1.4 amounted to 96%. The inhibition at 100 µM on rNaV1.4 is over 95%; on rNaV1.8, 0%; on hNaV1.5 it was 68%; on mNaV1.6 it was 71%; on rNaV1.2 it was 84%.

With `C[C@@H]1NC(=O)[C@H](Cc2c[nH]c3ccccc23)NC(=O)[C@H](CCCNC(=N)N)NC(=O)[C@H](C)NC(=O)[C@H](Cc2c[nH]c3ccccc23)NC(=O)[C@H](CCCNC(=N)N)NC(=O)[C@H](CCCNC(=N)N)NC(=O)[C@@H](N)CSSC[C@@H](C(N)=O)NC(=O)[C@H](CCCNC(=N)N)NC1=O` [PnCS1[N8A], CRRWARWARC ^*] (H-CRRWARWARC-NH2; disulfide 1-10), the IC50 on rNaV1.4 was 0.9 ± 0.4 µM; at rNaV1.8, over 100 µM; on hNaV1.5 it was 2.2 ± 0.7 µM; against mNaV1.6, 0.8 ± 0.3 µM; at rNaV1.2, 0.9 ± 0.3 µM. Besides, the inhibition at 100 µM was 94% on rNaV1.4; 0% on rNaV1.8; 92% on hNaV1.5; 89% on mNaV1.6; over 95% on rNaV1.2. Moreover, at rNaV1.2, the “Maximum % inhibition NaV1.2” value came out at 96%.

For the molecule `CC(=O)N[C@H]1CSSC[C@@H](C(N)=O)NC(=O)[C@H](CCCNC(=N)N)NC(=O)[C@H](CC(N)=O)NC(=O)[C@H](Cc2c[nH]c3ccccc23)NC(=O)[C@H](CCCNC(=N)N)NC(=O)[C@H](C)NC(=O)[C@H](Cc2c[nH]c3ccccc23)NC(=O)[C@H](CCCNC(=N)N)NC(=O)[C@H](CCCNC(=N)N)NC1=O` [PnCS1AcAm, Ac-CRRWARWNRC ^*] (Ac-CRRWARWNRC-NH2; disulfide 1-10), the concentration for half-maximal inhibition (IC50) against rNaV1.4, at rNaV1.8, on hNaV1.5, on mNaV1.6 and against rNaV1.2 was over 100 µM each time. Further, the inhibition at 100 µM at rNaV1.4, on rNaV1.8, at hNaV1.5, on mNaV1.6 and at rNaV1.2 was 0% each time.

For `C[C@@H]1NC(=O)[C@H](CCC(=O)O)NC(=O)[C@H](CCCNC(=N)N)NC(=O)[C@H](CCCNC(=N)N)NC(=O)[C@@H](N)CSSC[C@@H](C(N)=O)NC(=O)[C@H](CCCNC(=N)N)NC(=O)[C@H](CC(N)=O)NC(=O)[C@H](Cc2c[nH]c3ccccc23)NC(=O)[C@H](CCCNC(=N)N)NC1=O` [PnCS1[W4E], CRREARWNRC ^*] (H-CRREARWNRC-NH2; disulfide 1-10), the IC50 on rNaV1.4 was 12.8 ± 4.1 µM; on rNaV1.8 it was over 100 µM; on hNaV1.5 it was over 100 µM; on mNaV1.6, 14.8 ± 3.9 µM; against rNaV1.2, 13.2 ± 5.2 µM. Moreover, the inhibition at 100 µM at rNaV1.4 is 59%; on rNaV1.8, 0%; at hNaV1.5, 34%; at mNaV1.6, 67%; at rNaV1.2, 72%.

Take `C[C@@H]1NC(=O)[C@H](Cc2c[nH]c3ccccc23)NC(=O)[C@H](CCCCN)NC(=O)[C@H](CCCNC(=N)N)NC(=O)[C@@H](N)CSSC[C@@H](C(N)=O)NC(=O)[C@H](CCCNC(=N)N)NC(=O)[C@H](CC(N)=O)NC(=O)[C@H](Cc2c[nH]c3ccccc23)NC(=O)[C@H](CCCNC(=N)N)NC1=O` [PnCS1[R3K], CRKWARWNRC ^*] (H-CRKWARWNRC-NH2; disulfide 1-10): the concentration for half-maximal inhibition (IC50) at rNaV1.4 is 0.6 ± 0.3 µM; against rNaV1.8, over 100 µM; against hNaV1.5 it was 2.7 ± 0.6 µM; against mNaV1.6 it was 0.8 ± 0.3 µM; against rNaV1.2 it was 0.8 ± 0.3 µM. Also, the inhibition at 100 µM is 92% at rNaV1.4; 0% on rNaV1.8; 94% on hNaV1.5; 86% on mNaV1.6; over 95% on rNaV1.2. Besides, the “Maximum % inhibition NaV1.2” value at rNaV1.2 amounted to 96%.

For the molecule `C[C@@H]1NC(=O)[C@H](Cc2c[nH]c3ccccc23)NC(=O)[C@H](CCCNC(=N)N)NC(=O)[C@H](CCCNC(=N)N)NC(=O)[C@@H](N)CSSC[C@@H](C(N)=O)NC(=O)[C@H](CCCNC(=N)N)NC(=O)[C@H](CC(N)=O)NC(=O)[C@H](Cc2c[nH]c3ccccc23)NC(=O)[C@H](CCCCN)NC1=O` [PnCS1[R6K], CRRWAKWNRC ^*] (H-CRRWAKWNRC-NH2; disulfide 1-10), the half-inhibitory concentration (IC50) against rNaV1.4 is 0.6 ± 0.4 µM; against rNaV1.8 it was over 100 µM; against hNaV1.5, 3.3 ± 1.5 µM; against mNaV1.6, 0.9 ± 0.3 µM; at rNaV1.2, 8.7 ± 2.4 µM. Moreover, the inhibition at 100 µM is 94% at rNaV1.4; 0% at rNaV1.8; 89% on hNaV1.5; 88% at mNaV1.6; 67% on rNaV1.2.

Consider `C[C@@H]1NC(=O)[C@H](C)NC(=O)[C@H](Cc2c[nH]c3ccccc23)NC(=O)[C@H](CCCNC(=N)N)NC(=O)[C@H](CCCNC(=N)N)NC(=O)[C@@H](N)CSSC[C@@H](C(N)=O)NC(=O)[C@H](CCCNC(=N)N)NC(=O)[C@H](CC(N)=O)NC(=O)[C@H](Cc2c[nH]c3ccccc23)NC1=O` [PnCS1[R6A], CRRWAAWNRC ^*] (H-CRRWAAWNRC-NH2; disulfide 1-10), for which the IC50 on rNaV1.4 is 0.5 ± 0.2 µM; on rNaV1.8, over 100 µM; against hNaV1.5 it was 7.6 ± 2.2 µM; against mNaV1.6, 0.9 ± 0.2 µM; on rNaV1.2 it was 9.2 ± 1.1 µM. The “Maximum % inhibition NaV1.4” value at rNaV1.4 stood at 90%. In addition, the inhibition at 100 µM is over 95% on rNaV1.4; 0% at rNaV1.8; 78% at hNaV1.5; over 95% on mNaV1.6; 73% on rNaV1.2. Moreover, the “Maximum % inhibition NaV1.6” value on mNaV1.6 (peptide at 100 μM, 100 µM) stood at 96%.

Regarding `C[C@@H]1NC(=O)[C@H](C)NC(=O)[C@H](CCCNC(=N)N)NC(=O)[C@H](CCCNC(=N)N)NC(=O)[C@@H](N)CSSC[C@@H](C(N)=O)NC(=O)[C@H](CCCNC(=N)N)NC(=O)[C@H](CC(N)=O)NC(=O)[C@H](Cc2c[nH]c3ccccc23)NC(=O)[C@H](CCCNC(=N)N)NC1=O` [PnCS1[W4A], CRRAARWNRC ^*] (H-CRRAARWNRC-NH2; disulfide 1-10), the 50% inhibitory concentration (IC50) against rNaV1.4 was 0.7 ± 0.3 µM; at rNaV1.8, over 100 µM; against hNaV1.5, 3.4 ± 0.2 µM; at mNaV1.6 it was 1.2 ± 0.3 µM; on rNaV1.2, 0.8 ± 0.3 µM. For the same molecule, the inhibition at 100 µM at rNaV1.4 is 95%; at rNaV1.8, 0%; on hNaV1.5, 82%; on mNaV1.6, 76%; on rNaV1.2, 89%.
